In PubChem BioAssay (NCI) one finds GI50 and TGI data, which are given here for 14 molecules.

Holding throughout (assay): growth of human tumour cells (NCI), 48 h
The test system of assay [1] is ACHN renal.
Assay [2] concerns CAKI-1 renal.
In assay [3] the test system is COLO 205 colon.
Assay [4] relates to SN12C renal.
The subject of assay [5] is M14 melanoma.
For assay [6], the system named is HCT-116 colon.
Assay [7] has as its system CCRF-CEM leukemia.
Assay [8] deals with NCI-H522 lung.
The test system of assay [9] is OVCAR-5 ovarian.

Molecules are shown by their SMILES.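 48-hour exposure; five concentrations; linearly interpolated endpoints. GI50 = concentration required for 50% inhibition of growth. At the TGI there is no net growth.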 Bounds are passed on as bounds.

For `O=C([O-])c1ccccc1Nc1ccccn1.O=C([O-])c1ccccc1Nc1ccccn1.[Ni+2]`, the GI50 in assay [1], in assay [2], in assay [3], in assay [4], in assay [5] and in assay [6] was more than 100 µM in each case. Besides, the GI50 in assay [7] is more than 100 µM; in assay [8], more than 100 µM; in assay [9], 75.6 µM. Moreover, the TGI in [1], in [2], in [3], in assay [4], in assay [5] and in assay [6] was more than 100 µM throughout. In addition, the TGI in assay [7], in assay [8] and in assay [9] was more than 100 µM throughout.

With `COC(=O)[C@@H](C)C[C@H](Cc1ccccc1)NC(=O)c1nc([C@@H](C[C@H](C(C)C)N(C)C(=O)[C@@H](NC(=O)[C@H]2CCCCN2C)C(C)C)OC(C)=O)sc1C`, the GI50 in assay [1] is 0.00585 µM; in [3] it was less than 0.00167 µM; in assay [4], less than 0.00167 µM; in [6], less than 0.00167 µM; in assay [7], less than 0.00167 µM; in assay [8] it was less than 0.00167 µM. The GI50 in assay [9] was 0.00478 µM. The TGI in assay [1] was more than 16.7 µM; in assay [3] it was 0.00926 µM; in assay [4], more than 16.7 µM; in [6], more than 9.5 µM; in assay [7], more than 16.7 µM; in assay [8], less than 0.00167 µM. For the same molecule, the TGI in assay [9] was more than 16.7 µM.

In the case of `Cc1ccc(C(=O)O/N=C2/CCC/C2=C\c2ccccc2)cc1`, the TGI in assay [1], in assay [2], in assay [3], in assay [4], in assay [5] and in [6] was more than 100 µM in each case. In addition, the TGI in [7], in assay [8] and in assay [9] was more than 100 µM in each case.

With `C=CCC1([C@H](C)[C@@H](OC(C)=O)c2cc(OC)c(OC)c(OC)c2)C[C@@H](OC)CCC1=O` (some centres undefined), the TGI in assay [1] is 41.4 µM; in assay [2], more than 100 µM; in [3], 42.2 µM; in assay [4], 37 µM; in assay [5] it was 30.4 µM; in assay [6] it was 32.3 µM. For the same molecule, the TGI in assay [7] worked out at 51.7 µM; in assay [8] it was 25.4 µM.

Take `CC(=O)NNc1nc(C)c(C(=O)NNC(=O)C(=O)Nc2ccccc2C#N)s1`: the TGI in assay [1], in assay [2], in assay [3], in [4], in assay [5] and in assay [6] was more than 100 µM throughout. Further, the TGI in assay [7], in [8] and in assay [9] was more than 100 µM throughout.

Turning to `CNS(=O)(=O)NN(C)S(=O)(=O)c1ccc(F)cc1`, the TGI in assay [1], in [2], in [3], in [4], in assay [5] and in assay [6] was more than 100 µM throughout. Moreover, the TGI in assay [7], in [8] and in assay [9] was more than 100 µM throughout.

Consider `COc1ccccc1NC(=O)C1=C(C)NC(C)=C(C(=O)Nc2ccccc2OC)C1c1ccccc1F`, for which the TGI in [1], in [2], in assay [3], in [4], in [5] and in assay [6] was more than 100 µM in each case. Further, the TGI in assay [7] and in assay [9] was more than 100 µM throughout.

For `CCCc1[nH]nc(CCC(=O)N(Cc2ccccc2)Cc2ccccc2)c1CC`, the TGI in assay [1], in assay [2], in [3], in assay [4], in assay [5] and in assay [7] was more than 100 µM throughout. The TGI in assay [8] and in assay [9] was more than 100 µM throughout.

As for `COc1nc(NC2OCC(OC(C)=O)C(OC(C)=O)C2OC(C)=O)c(N=CC=Nc2c(NC3OCC(OC(C)=O)C(OC(C)=O)C3OC(C)=O)nc(OC)n(C)c2=O)c(=O)n1C` (centres undefined), the TGI in assay [1], in assay [3], in [4], in [5], in assay [6] and in assay [8] was more than 100 µM in each case. In assay [9], this molecule had a TGI of more than 100 µM.

Regarding `CCCCCCCCCCCCOC(=S)NCCCC`, the TGI in [1] was 50.5 µM; in assay [4], 45.2 µM; in assay [5], 79 µM; in assay [6] it was 35 µM; in assay [7], 80.4 µM; in assay [8], 36.5 µM. Moreover, in assay [9], the TGI is 51.4 µM.

For `COC(=O)CCC(NC(=S)N/N=C(\C)c1nccs1)C(=O)OC` (centres undefined), the TGI in assay [1] is more than 100 µM; in [3] it was 34.1 µM; in assay [4] it was more than 100 µM; in assay [5] it was more than 100 µM; in [6], more than 100 µM; in assay [8] it was 78.4 µM. In assay [9], this molecule showed a TGI of more than 100 µM.

As to `CC1=NCCc2c1[nH]c1cc(O)ccc21`, the TGI in assay [1], in assay [2], in assay [3], in [4], in assay [5] and in assay [6] was more than 100 µM in each case. The TGI in [7] and in assay [9] was more than 100 µM throughout.

With `O=Cc1cn(C(=O)c2ccccc2)c2ccccc12`, the TGI in [1], in assay [2], in [5], in assay [6], in assay [7] and in assay [9] was more than 100 µM throughout.

For `COc1cc2c(cc1OC)C(N(C)C)C(c1ccccc1)=C2Cl` (centres undefined), the TGI in assay [3] is 32.6 µM; in assay [4] it was 43.3 µM; in assay [5] it was 34.3 µM; in [7], more than 100 µM; in [8], 21.7 µM; in assay [9] it was more than 100 µM.
